Measurements published in patent publication US5914329A, “Dimesylate salts of neuropeptide Y ligands” (Pfizer Inc., priority 1997, dated 1999).
Structures can show the parent of a compound that is named as a salt.

Legend:
Chemical stability = type: physicochemical
[1] = Aqueous solubility of salts
[2] = Hygroscopicity evaluation at high humidities; type: physicochemical; details: humidities below 90%
[3] = Bioavailability (species not stated); details: in words

For `CCOc1cccc(C2(N3CCN(c4ccccc4)CC3)CCC(C)CC2)c1` (stereo not drawn) [dihydrochloride, cis-1-(3-ethoxyphenyl)-1-(4-phenylpiperazin-1-yl)-4-methyl-cyclohexane, reference compound], the “stability in the solid state” value (Chemical stability; solid state, in words) was “unstable”, the bioavailability in dogs (Bioavailability in dogs) was 75% and the solubility ([1]; water, water solubility) was 1 mg/mL.

In the case of `CCOc1cccc(C2(N3CCN(c4ccccc4)CC3)CCC(C)CC2)c1` (stereo not drawn) [form A, Dimesylate salt of cis-1-(3-ethoxyphenyl)-1-(4-phenylpiperazin-1-yl)-4-methylcyclohexane], the hygroscopicity [2] is reported as “non-hygroscopic”, the Chemical stability (Chemical stability; 40° C. in 75% RH) is reported as “no detectable degradation” and the Chemical stability (Chemical stability; 70° C., at ambient humidity) is reported as “no detectable degradation”. For the same compound, the Chemical stability (Chemical stability; light box under fluorescent light) was “no detectable degradation” and the solubility ([1]; water, Aqueous solubility, isolated form A of the dimesylate salt) was 31 mg/mL.

Work on `CCOc1cccc(C2(N3CCN(c4ccccc4)CC3)CCC(C)CC2)c1` (stereo not drawn) [fumarate salt, cis-1-(3-ethoxyphenyl)-1-(4-phenylpiperazin-1-yl)-4-methyl-cyclohexane, reference compound] yielded a solubility ([1]; water, solubility in water, in water) of 0.04 mg/mL.

For `CCOc1cccc(C2(N3CCN(c4ccccc4)CC3)CCC(C)CC2)c1` (stereo not drawn) [compound I, dimesylate salt of cis-1-(3-ethoxyphenyl)-1-(4-phenylpiperazin-1-yl)-4-methyl-cyclohexane], the bioavailability [3] was “good”, the stability (Chemical stability; in words) was “good” and the solubility ([1]; solubility, dimesylate salt, medium not stated) was 31 mg/mL.
